Molecules are shown by their SMILES.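 Five compound concentrations were applied to cells in 96-well plates for 48 hours; endpoints were derived by simple linear interpolation of the resulting dose-response curve. TGI: total growth inhibition.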

Some test systems named below: U251 CNS; SF-295 CNS; MDA-MB-435; EKVX NSCLC; HT29 colon; T-47D breast; HCT-15 colon; MDA-MB-231 breast; RXF 393 renal; NCI-H460 lung; DU-145 prostate; A498 renal; NCI-H226 lung; SW-620 colon; MDA-N; IGROV1 ovarian.
Holding throughout (test): NCI tumour cell line growth inhibition, 48 h

Take `O=c1oc2ccc3ccccc3c2cc1-c1nnc(Nc2ccccc2)s1`: the TGI was 21.3 µM in the assay on U251 CNS; 83.3 µM in the assay on SF-295 CNS; greater than 100 µM in the assay on MDA-MB-435; greater than 100 µM in the assay with EKVX NSCLC; greater than 100 µM in the assay with HT29 colon; greater than 100 µM with T-47D breast. Moreover, the TGI is greater than 100 µM with HCT-15 colon; 35.1 µM in the assay with MDA-MB-231 breast; 29.7 µM in the assay with RXF 393 renal; 42.3 µM in the assay on NCI-H460 lung; 55.5 µM with DU-145 prostate; 22.4 µM with A498 renal.

For `OC12c3ccccc3C1CCCCC2N1CCCC1` (stereo not drawn), the TGI with U251 CNS, in the assay on SF-295 CNS, with EKVX NSCLC, in the assay on HT29 colon, in the assay with NCI-H226 lung and in the assay on HCT-15 colon was greater than 100 µM each time. Also, the TGI with RXF 393 renal, in the assay with SW-620 colon and with NCI-H460 lung was greater than 100 µM throughout.

Regarding `O=C1/C(=C/c2cccc(Cl)c2)CCCc2ccccc21`, the TGI with U251 CNS was determined as 29.4 µM; in the assay with SF-295 CNS, 31.6 µM; with MDA-MB-435, 31.6 µM; in the assay with EKVX NSCLC it was 35.9 µM; with HT29 colon, 30.9 µM; with NCI-H226 lung it was 30.7 µM. In addition, the TGI turned out to be 39.2 µM in the assay on HCT-15 colon; 31.9 µM with MDA-N; 38.2 µM in the assay with MDA-MB-231 breast; 33.9 µM in the assay with SW-620 colon; 31.2 µM in the assay on NCI-H460 lung; 40.2 µM with DU-145 prostate. The same compound returned a TGI in the assay on IGROV1 ovarian of 31.8 µM.

For `CC(C)(O)C(O)COc1c2c(cc3oc(=O)ccc13)OCO2` (stereo not drawn), the TGI in the assay with U251 CNS, with SF-295 CNS, in the assay on EKVX NSCLC, in the assay on HT29 colon, with NCI-H226 lung and with HCT-15 colon was greater than 100 µM in each case. The TGI in the assay with RXF 393 renal, in the assay with SW-620 colon, with NCI-H460 lung, with A498 renal and in the assay on IGROV1 ovarian was greater than 100 µM throughout.

In the case of `COc1ccc(C(c2ccccc2)(c2ccc(OC)cc2)N2C(=O)NC3C(CCCCC(=O)NCCCCCCOP(OCCC#N)N(C(C)C)C(C)C)SCC32)cc1` (stereo not drawn), the TGI in the assay with U251 CNS is 28.5 µM; in the assay with SF-295 CNS, 31.2 µM; with EKVX NSCLC, 56.5 µM; in the assay with HT29 colon it was 31.7 µM; in the assay on NCI-H226 lung, 30.4 µM; with HCT-15 colon, 35.6 µM. Also, the TGI in the assay on RXF 393 renal came out at 24.2 µM; in the assay on SW-620 colon it was 43.8 µM; in the assay with NCI-H460 lung, 33.8 µM; with A498 renal, 35 µM; with IGROV1 ovarian, 40.3 µM.

As for `COC(=O)[C@]12CC3C=CC1N(C3)C(CBr)c1c2n(S(=O)(=O)c2ccccc2)c2ccccc12` (stereo partly drawn), the TGI in the assay on U251 CNS, in the assay on SF-295 CNS, in the assay with MDA-MB-435, with EKVX NSCLC, in the assay on HT29 colon and with NCI-H226 lung was greater than 100 µM throughout. Also, the TGI in the assay with HCT-15 colon, in the assay on MDA-N, in the assay on MDA-MB-231 breast, in the assay on RXF 393 renal, in the assay on SW-620 colon and in the assay with NCI-H460 lung was greater than 100 µM in each case. For the same compound, the TGI in the assay on DU-145 prostate and with IGROV1 ovarian was greater than 100 µM throughout.

With `COc1cc(/C=C2\C(=O)N(C(=O)Cc3ccccc3)N=C2C)cc(OC)c1OC`, the TGI in the assay on SF-295 CNS, in the assay with EKVX NSCLC, with HT29 colon, in the assay with NCI-H226 lung, with HCT-15 colon and in the assay with SW-620 colon was greater than 100 µM each time. The same compound yielded a TGI in the assay with NCI-H460 lung greater than 100 µM.

For the compound `N#Cc1ccc(C(O)C(F)(F)c2nc3ccccc3o2)cc1` (stereo not drawn), the TGI in the assay on U251 CNS, in the assay on SF-295 CNS, in the assay on MDA-MB-435, in the assay with EKVX NSCLC, in the assay on HT29 colon and in the assay with NCI-H226 lung was greater than 100 µM throughout. In addition, the TGI with T-47D breast, in the assay on HCT-15 colon, in the assay with MDA-MB-231 breast, in the assay on RXF 393 renal, in the assay with SW-620 colon and in the assay on NCI-H460 lung was greater than 100 µM each time. Moreover, the TGI in the assay on DU-145 prostate and with IGROV1 ovarian was greater than 100 µM throughout.

With `Cc1nc2sccn2c1C(=O)NN`, the TGI in the assay with U251 CNS, in the assay with SF-295 CNS, in the assay on EKVX NSCLC, with HT29 colon, in the assay on NCI-H226 lung and in the assay with HCT-15 colon was greater than 100 µM in each case. The TGI with RXF 393 renal, in the assay with SW-620 colon, in the assay on NCI-H460 lung and with IGROV1 ovarian was greater than 100 µM in each case.

`COc1ccc(CNc2cnc3cc(N)ccc3n2)cc1`: the TGI with U251 CNS, in the assay with SF-295 CNS, with EKVX NSCLC, with HT29 colon, in the assay with NCI-H226 lung and with HCT-15 colon was greater than 100 µM throughout. Further, the TGI in the assay on RXF 393 renal, with SW-620 colon, in the assay on NCI-H460 lung and in the assay on IGROV1 ovarian was greater than 100 µM throughout.

As to `CSC1=N/C(=C\c2ccc(Cl)cc2)C(=O)N1CN1CCCCC1`, the TGI was greater than 100 µM with U251 CNS; greater than 100 µM in the assay on SF-295 CNS; greater than 100 µM in the assay with MDA-MB-435; 53.3 µM with EKVX NSCLC; greater than 100 µM in the assay on HT29 colon; greater than 100 µM with NCI-H226 lung. Moreover, the TGI in the assay on HCT-15 colon, in the assay with MDA-N, with MDA-MB-231 breast, with SW-620 colon, with DU-145 prostate and with A498 renal was greater than 100 µM in each case. In the assay with IGROV1 ovarian, this compound gave a TGI of 93.2 µM.

For `CC(=O)Nc1ccc2c3c(cc(O)c2c1)N(C(=O)CCCC(=O)N1CC(CCl)c2c1cc(O)c1cc(NC(C)=O)ccc21)CC3CCl` (stereo not drawn), the TGI is less than 0.0139 µM in the assay with U251 CNS; 0.019 µM in the assay with MDA-MB-435; 0.0925 µM in the assay on EKVX NSCLC; less than 0.01 µM in the assay with T-47D breast; 11.5 µM in the assay with HCT-15 colon; less than 0.01 µM with MDA-MB-231 breast. Further, the TGI was less than 0.01 µM in the assay with RXF 393 renal; greater than 100 µM in the assay with SW-620 colon; greater than 100 µM in the assay on NCI-H460 lung; less than 0.01 µM with DU-145 prostate; greater than 100 µM in the assay on IGROV1 ovarian.

As for `C=C(C)C12CC3CC(/C(=N/O)C(C1)/C3=N\O)[C@@]2(C)O` (stereo partly drawn), the TGI in the assay on U251 CNS, with SF-295 CNS, in the assay with EKVX NSCLC, in the assay with HT29 colon, in the assay with NCI-H226 lung and with HCT-15 colon was greater than 100 µM in each case. In addition, the TGI with RXF 393 renal, in the assay with SW-620 colon, in the assay with NCI-H460 lung and in the assay with IGROV1 ovarian was greater than 100 µM each time.

On to `CC1=NN(c2nc(N)nc(CN3CCOCC3)n2)C(C)(C)C1`, for which the TGI with U251 CNS, with SF-295 CNS, with MDA-MB-435, in the assay with EKVX NSCLC, in the assay with HT29 colon and with NCI-H226 lung was greater than 100 µM each time. Besides, the TGI in the assay with T-47D breast, in the assay on HCT-15 colon, in the assay with MDA-MB-231 breast, in the assay on RXF 393 renal, in the assay on SW-620 colon and in the assay on NCI-H460 lung was greater than 100 µM throughout. In addition, the TGI in the assay on DU-145 prostate is greater than 100 µM; in the assay with A498 renal, greater than 100 µM; with IGROV1 ovarian, 37.2 µM.

As for `CC1=C(C#N)C(=C(C#N)C#N)OC1(C)Cc1ccccc1` (stereo not drawn), the TGI in the assay on U251 CNS is greater than 100 µM; in the assay with SF-295 CNS, greater than 100 µM; in the assay with MDA-MB-435, greater than 100 µM; in the assay with EKVX NSCLC it was greater than 100 µM; with HT29 colon, 78.6 µM; in the assay on NCI-H226 lung it was 59.3 µM. Moreover, the TGI in the assay with T-47D breast is 85.6 µM; in the assay on HCT-15 colon it was 83 µM; with MDA-MB-231 breast it was greater than 100 µM; in the assay with RXF 393 renal, 37.6 µM; in the assay on SW-620 colon, greater than 100 µM; in the assay on DU-145 prostate, greater than 100 µM. Besides, the TGI in the assay on A498 renal and in the assay with IGROV1 ovarian was greater than 100 µM each time.

As for `COc1cccc2c1c1ccc3c(c1n2C)C(=O)C=CC3=O`, the TGI in the assay on U251 CNS was greater than 100 µM; with SF-295 CNS it was greater than 100 µM; with HT29 colon, 12.6 µM; in the assay on NCI-H226 lung, greater than 100 µM; with HCT-15 colon, 31.8 µM; in the assay on SW-620 colon it was 24.7 µM. Further, the TGI in the assay on NCI-H460 lung, in the assay on A498 renal and in the assay on IGROV1 ovarian was greater than 100 µM each time.

With `CCOCCOCCOCc1nc(C#N)c(N)o1`, the TGI in the assay with U251 CNS, with SF-295 CNS, in the assay on MDA-MB-435, with EKVX NSCLC, with HT29 colon and with NCI-H226 lung was greater than 100 µM each time. The TGI in the assay on T-47D breast, in the assay with HCT-15 colon, in the assay on MDA-MB-231 breast, with RXF 393 renal, in the assay on SW-620 colon and in the assay with NCI-H460 lung was greater than 100 µM each time. The TGI in the assay with DU-145 prostate, in the assay with A498 renal and with IGROV1 ovarian was greater than 100 µM throughout.

As for `COc1cc2c(cc1OC)OC(c1c(OC)ccc(OC)c1O)CC2` (stereo not drawn), the TGI with U251 CNS, in the assay on SF-295 CNS, with MDA-MB-435, in the assay on EKVX NSCLC, in the assay on HT29 colon and in the assay on NCI-H226 lung was greater than 100 µM throughout. Moreover, the TGI in the assay with T-47D breast, with HCT-15 colon, with MDA-MB-231 breast, in the assay with RXF 393 renal, in the assay with SW-620 colon and in the assay with NCI-H460 lung was greater than 100 µM in each case. In addition, the TGI with DU-145 prostate, in the assay with A498 renal and in the assay on IGROV1 ovarian was greater than 100 µM throughout.
